Data reported in US10066272B2, “Human homeobox gene ventx and macrophage terminal differentiation and activation, compositions and methods thereof” (priority 2011, dated 2018).

Experiments:
[1] = system: primary monocytes; test: Monocyte to macrophage differentiation after siRNA transfection, surface markers by FACS; type: cell-based, human
Description: (A) knockdown of VentX expression in primary monocytes by RNA interference. Monocytes were transfected with siRNA against GFP or VentX through electroporation. VentX mRNA levels were determined by real time PCR at 3 days after transfection (left); VentX protein level was determined by western blotting at 4 days after transfection (right). (B) Effects of VentX knockdown on macrophage morphogenesis during M-CSF induced differentiation. Monocytes were transfected with either siGFP or siVentX and subsequently exposed to 100 ng/mL M-CSF. […] Magnification of photographs, ×200. Note: a portion of cells lost their original morphology during Wright-Giemsa staining procedure. (C) Effects of VentX knockdown on macrophage surface expression of CD71. […] Filled blue histogram represents the isotope control staining; red histogram represents monocytes transfected with siGFP; green histogram represents monocytes transfected with siVentX. (D) Bar graphs show mean+SD of 6 different experiments in (C). Paired t test was used to reveal the statistical significance. **p<0.01.
(A) Left panel: Flow cytometry analysis of indicated surface markers in monocytes transfected with siGFP or siVentX, respectively; right panel: bar graphs show the mean+SD of at least three separate experiments. *p<0.05; **p<0.01. (B) Effects of VentX knockdown on macrophage viability. Monocytes were transfected with either siGFP or siVentX and subsequently exposed to 100 ng/mL M-CSF for 3 days. Cells were then harvested and stained with PI and Annexin V and analyzed by flow cytometry. (C) Effects of VentX knockdown on phagocytosis. Monocytes were transfected with siGFP or siVentX. Phagocytosis assays were carried out as described in materials and methods. […]
Surface expression of CD71 was determined by FACS analysis at 4 days after siRNA transfection. […]
Peripheral blood mononuclear cells (PBMC) from healthy adult donors at Children's Hospital Boston were isolated by Ficoll density gradient centrifugation. […] The purity of freshly isolated CD14^+ monocytes was more than 95% as analyzed by flow cytometry. […]

[2] = system: macrophages; test: Secreted pro-inflammatory cytokines from macrophage culture supernatants (ELISA); type: cell-based, human; conditions: transfected macrophages, TNF-α, IL1-β and IL12p70 by ELISA (FIG. 8B)
Description: Macrophages were generated through incubation of freshly isolated monocytes with 100 ng/mL M-CSF for 4 days. These macrophages were then transfected with siGFP or siVentX, respectively, and further cultured in RPMI 1640 medium for additional 3 days. Thereafter, cells were exposed to 1 μg/mL LPS plus 20 ng/mL γ-IFN for 6 hours. (A) Surface staining of CD40, CD80, CD86 and HLA-DR and intracellular staining of TNF-α and IL1-β were analyzed by flow cytometry. (B) Secreted TNF-α, IL1-β and IL12p70 from culture supernatants were determined with ELISA kits. (C) Reactive oxygen species (ROS) from siGFP or siVentX transfected macrophages were analyzed with fluorescence microscope (left) and flow cytometry (middle). […] (D) Nitrate level from siGFP and siVentX transfected macrophages. Data represent mean+SD of three different experiments. (E) Phagocytosis of siGFP and siVentX transfected macrophage. Red histogram represents transfection with siGFP; green histogram represents transfection with siVentX. Left panel: cells were incubated on ice; right panel: cells were incubated at 37° C. (F) Effects of VentX knockdown on mixed lymphocyte reaction. […]
Levels of IL-1β and TNF-α and IL12p70 in the supernatants of E. coli LPS (Sigma) and IFN-γ (PeproTech) treated macrophage or LPS treated U937 cells were quantified using ELISA kits obtained from eBiosciences. […]

siVentX: VentX siRNA, forward 5′-UUCAGAAUCGCCGCAUGAAACACAAACGG-3′ (SEQ ID NO:4), reverse SEQ ID NO:5 (antisense CCGUUUGUGUUUCAUGCGGCGAUUCUGAA; listed as RNA, chemistry not given here)
macrophage differentiation by GM-CSF or IL3 ([1]; monocytes, 100 ng/mL GM-CSF or IL3, CD71 at 4 days (FIG. 15)): blocked macrophage differentiation | expression of macrophage phenotypic markers CD64, CD40, CD86, CD11b and CD11c ([1]; transfected monocytes, M-CSF, compared with siGFP transfected control cells (FIG. 3A)): significantly down-regulated | pro-inflammatory cytokine secretion [2]: significant reduction
